# Experimental data taken from article PMC6010070, “Antinociceptive potency of a fluorinated cyclopeptide Dmt-c[D-Lys-Phe-p-CF3-Phe-Asp]NH2” (Journal of Enzyme Inhibition and Medicinal Chemistry, 2018).
# Where two headings read alike, the source gives them in different places. Bridge positions count the residues as written; N and C are the ends. Square brackets hold non-standard residues; d marks the D form. Peptide text beside a SMILES is read from it. Phe(4-CF3) = N[C@@H](Cc1ccc(C(F)(F)F)cc1)C(=O)O; Dmt = Cc1cc(O)cc(C)c1C[C@H](N)C(=O)O
# Experiments:
# Male CD-1 mice = test: Hot-plate test after i.c.v. administration; assay type: in vivo; details: for ED50 (jumping response): mice
# Description: Male CD-1 mice (Harlan, Italy) weighing 25–30 g were used to determine the anti-nociceptive activity of the cyclopeptides in the hot-plate test after i.c.v. injection. Animal studies and research protocols were approved by the Service for Biotechnology and Animal Welfare of the Istituto Superiore di Sanità and authorized by the Italian Ministry of Health, according to Legislative Decree 26/14 (protocol number: 198/2013-B, 14 August 2013), which implemented the European Directive 2010/63/EEC on laboratory animal protection. Animal welfare was routinely checked by veterinarians from the Service for Biotechnology and Animal Welfare.
# The hot-plate test was performed as described earlier. The intracerebroventricular (i.c.v.) injections were performed in a volume of 10 µl/animal, in the left brain ventricle of manually immobilized mice with a Hamilton microsyringe (50 µl) connected to a needle (diameter 0.5 mm). Peptides were also administrated in mice intravenously (i.v.) in a volume of 1 ml/kg. All compounds used for i.c.v. and i.v. administration were dissolved in saline. A transparent plastic cylinder (14 cm diameter, 31 cm height) was used to confine the mouse on the heated (55 ± 0.5 °C) surface of the plate. The animals were placed on the hot plate 5 min after the i.c.v. injection of saline (control) or peptides and the latencies to paw licking, rearing and jumping were measured at 5, 10, 20, 30, 45, 60, 90, and 120 min after administration of a peptide. A cut-off time of 240 s was used to avoid tissue injury. The percentage of the maximal possible effect (%MPE) was calculated as: %MPE = (t1 − t0)/(t2 − t0) × 100, where t0: control latency, t1: test latency, and t2: cut-off time. The median antinociceptive dose (ED50) was calculated according to the method of Litchfield and Wilcox[36].
# [1] = for BBB permeability Pe ± SD: PAMPA, brain polar lipid extract, 200 µM, 4 h, room temperature, pH 7.4; for Classification (BBB permeation) / Mean (%) Mass balance ± SD: PAMPA-BBB; for Classification (BBB permeation): classified by Pe; for Mean (%) Mass balance ± SD: membrane retention
# Description: Parallel Artificial Membrane Permeability Assay (PAMPA) was performed using Multiscreen Filter Plate and Multiscreen Transport Receiver Plate (Merck Millipore, Warsaw, Poland). Tested, as well as reference compounds, were dissolved in 0.1 M PBS buffer containing 20% of ethanol, to the final concentration of 200 µM. A 300 µl aliquots of 0.1 M PBS solution (pH = 7.4) was dispensed into the wells of the […]. Then 1% n-dodecane solution of the brain polar lipid extract (Avanti Polar Lipids; Sigma Aldrich, Poznan, Poland) was prepared to investigate the blood–brain barrier (BBB) permeability. Aliquots of the obtained lipid solutions (5 µl) were dispensed on the membranes of wells of the donor plate and left to dry. […] A complete system, consisting of the receiver plate with inserted donor plate, was incubated at room temperature for 4 h, shaking at 40 g, to guarantee good solvent mixing.
# The ability of the tested compounds to permeate the artificial membranes was classified according to the literature[33] as:
# Artificial membrane permeability was assessed in the PAMPA assay and the permeability coefficient (Pe) was calculated from the following equation: Pe=C×-ln1-×Ca/Cr where C=Vd ×Va /(Vd+Va)×p×t
# Membrane retention was analysed using mass balance between a compound left in the donor and acceptor compartments and calculated using the following equation: MB=Ca×Va+(Cd×Vd)/Cinitial×Vd where
# Kinetic solubility assay = assay type: physicochemical; details: PBS buffer, pH 7.4
# Description: Kinetic solubility assay was performed using Multiscreen HTS Vacuum Manifold (Merck Millipore, Warsaw, Poland). Compounds for this test were prepared as 10 mM stock solutions in DMSO and diluted in a standard PBS buffer (pH = 7.4), to the final concentrations of 0.5 mM. The solutions were applied into a 96-well filter plate and incubated for 90 min at room temperature, while shaking at 40 g and then filtrated. The concentration of each compound was determined on the basis of the prepared calibration curve using the UV–VIS spectrophotometric method. According to the absorption spectra of the compounds the wavelength used for the measurements was 280 nm for both, C-36 and F-81.
# Male balb/c mice [2] = test: Semi-chronic model of TNBS-induced colitis (macroscopic damage, MPO activity); assay type: in vivo
# Description: (§1) Male balb/c mice (Animal Facility of Nofer Institute of Occupational Medicine, Lodz, Poland) weighing 22–25 g were used to determine the anti-inflammatory and anti-nociceptive activity of cyclopeptides after i.p. administration. All procedures and protocols used in this study were approved by the Local Ethical Committee for Animal Research (protocol number: 20/ŁB708/2014, 26 May 2014). The study was carried out in accordance with the recommendations described in the Guide for the Care and Use of Laboratory Animals of the Medical University of Lodz, Poland. All experimental procedures were performed in accordance with the current guidelines for the care of laboratory animals (including the use of the 3Rs procedures) and in accordance with the ARRIVE guidelines.
# (§2) The experimental colitis was induced by intracolonic (i.c.) administration of 2,4,6-trinitrobenzenesulfonic acid (TNBS). Mice were anesthetized with isoflurane (Aerrane, Baxter, Deerfield, IL) and TNBS at the dose of 4 mg per mouse (dissolved in 30% EtOH in saline) in the final volume of 150 µl, was injected into the colon through a catheter inserted 3 cm proximally from the anus. Mice were then maintained in an inclined position for 1 min to ensure the proper distribution of the inductor in the colon. Next, recovery was allowed with food and water supplied. Control animals received vehicle alone (30% ethanol in saline; TNBS replaced with equivolume water).
# In the semi-chronic model, the curative potential of F-81 was tested. TNBS was administered on day 0 and from day 3 to day 6 the F-81 treatment (1 mg/kg in saline, 100 µl, i.p) was performed. On day 7, mice were sacrificed and the evaluation of colonic damage was performed.
# (§3) To perform the macroscopic damage score, the colon was removed immediately after euthanasia, opened longitudinally, rinsed with phosphate buffered saline (PBS), and examined using an established semiquantitative scoring system by adding individual scores for ulcer, colonic shortening, wall thickness, and the presence of haemorrhage, faecal blood, and diarrhoea, as described before. For scoring ulcer and colonic shortening the following scale was used: ulcer: 0.5 points for each 0.5 cm; shortening of the colon: 1 point for >15%, 2 points for >25% (based on a mean length of the colon in untreated mice). The wall thickness was measured in millimetres, a thickness of n mm corresponded to n scoring points. The presence of haemorrhage, faecal blood, or diarrhoea increased the score by 1 point for each additional feature.
# The colon fragments (20–30 mg) were gently isolated from mice after total macroscopic damage score assessment, immediately washed with PBS, and homogenized in hexadecyltrimethylammonium bromide (HTAB) buffer (0.5% HTAB in 50 mM potassium phosphate buffer, pH 6.0; 50 mg of tissue/ml) using Ika Ultra Turrax Disperser T25 Digital 2 (Sigma Aldrich, Poznan, Poland). The homogenates were centrifuged (20 min, 13,200g, 4 °C) and the supernatants were transferred to the new test tubes. […] The absorbance was measured at 450 nm after 30 and 60 s (iMARK Microplate Reader, Biorad, UK). […]
# (§4) The MPO activity was expressed in units/g of a wet tissue. One unit is determined as a quantity of enzyme able to convert 1 µmol of H2O2 to water in 1 min at room temperature. MPO activity units were calculated from the standard curve using purified peroxidase enzyme.
# Male balb/c mice [3] = test: Mustard oil induced abdominal pain in mice with acute TNBS-induced colitis; assay type: in vivo; details: mustard oil i.c., 1 mg/kg i.p., counted for 20 min, control group 29.28 ± 2.52
# Description: as §1
# To assess the anti-nociceptive effect of F-81 in mice with acute colitis, intestinal inflammation was induced by TNBS instillation three days prior to the experiment. Abdominal pain was induced in inflamed mice by the i.c. injection of 1% mustard oil (MO, allyl isothiocyanate) in 70% EtOH in saline. Mice were separated into clear plastic boxes (20 × 20 × 15 cm) and allowed a 5 min recovery after MO administration. Spontaneous behaviours (licking and stretching the abdomen, squashing of lower abdomen against the floor, and abdominal retraction) were observed and counted for 20 min.
# kappa-opioid receptor = tested on: kappa-opioid receptor; parameters: method as in PMID 26005537, PMID 25047937; details: cited from earlier work
# Male balb/c mice [4] = test: Prevention mouse model of TNBS-induced colitis (macroscopic damage, MPO activity); assay type: in vivo; details: 1 mg/kg i.p. once daily
# Description: as §1, §2
# In the prevention mouse model of colitis, F-81 was injected intraperitoneally (i.p.) at the dose of 1 mg/kg in saline, in the volume of 100 µl, once daily, for 3 days, 15 min prior to TNBS administration. Mice were weighted daily and monitored for clinical symptoms of colitis, including diarrhoea and bloody stool. On day 4, mice were sacrificed by rapid cervical dislocation and the macroscopic damage score was assessed.
# as §3
# The colon fragments (20–30 mg) were gently isolated from mice after total macroscopic damage score assessment, immediately washed with PBS, and homogenized in hexadecyltrimethylammonium bromide (HTAB) buffer (0.5% HTAB in 50 mM potassium phosphate buffer, pH 6.0; 50 mg of tissue/ml) using Ika Ultra Turrax Disperser T25 Digital 2 (Sigma Aldrich, Poznan, Poland). The homogenates were centrifuged (20 min, 13,200g, 4 °C) and the supernatants were transferred to the new test tubes. Then, 7 µl portions of supernatants were added on a 96-well plate, followed by 200 µl of 50 mM potassium phosphate buffer (pH = 6.0), containing 0.167 mg/ml of O-dianisidine hydrochloride and 0.05 µl of 1% H2O2. The absorbance was measured at 450 nm after 30 and 60 s (iMARK Microplate Reader, Biorad, UK). All measurements were done in triplicates.
# as §4
# Male balb/c mice [5] = test: Histology, microscopic total damage score of distal colon (prevention model of colitis); assay type: in vivo; details: 1 mg/kg
# Description: Distal colon sections from the preventive mouse model of colitis were stapled flat, mucosal side-up, onto cardboard strips and fixed in 10% formalin for 24 h at 4 °C. Samples were dehydrated, embedded in paraffin, sectioned at 5 µm, and mounted onto slides. The sections were then stained with haematoxylin and eosin and Motic AE31 microscope (Ted Pella, Sweden) photographs were taken using a digital imaging system consisting of a digital camera (Moticam 2300, Ted Pella, Sweden) and image analysis software (Motic Images Plus 2.0, Germany).
# The microscopic total damage score was assessed using the following parameters: the goblet cell depletion (presence = 1, absence = 0), crypt abscesses (presence = 1, absence = 0), the destruction of mucosal architecture (normal = 1, moderate = 2, extensive = 3), the extent of muscle thickening (normal =1, moderate = 2, extensive = 3), and the presence and degree of cellular infiltration (normal = 1, moderate = 2, transmural = 3).
# [6] = read-out: Solubility Mean (mg/ml)
smiles,measurement,setting,value
"Cc1cc(O)cc(C)c1C[C@H](N)C(=O)N[C@@H]1CCCCNC(=O)C[C@@H](C(N)=O)NC(=O)[C@H](Cc2ccccc2)NC(=O)[C@H](Cc2ccccc2)NC1=O [Peptide C-36, Dmt-c[D-Lys-Phe-Phe-Asp]NH2] (H-[Dmt][dK]FFD-NH2; lactam 2-5; N-terminus assumed)",ED50 (jumping response),"Male CD-1 mice; hot-plate test, i.c.v.",57.78 ng
same,BBB permeability Pe ± SD,[1],≤0.58
same,Classification (BBB permeation),[1],Low permeation (Pe < 2.0 – low permeation)
same,Mean (%) Mass balance ± SD,[1],97.87 ± 1.69%
same,solubility at 90 min,Kinetic solubility assay; read-out: Solubility Mean,≥ 500 µM
same,solubility at 90 min,Kinetic solubility assay; [6],≥ 0.36 mg/mL
"Cc1cc(O)cc(C)c1C[C@H](N)C(=O)N[C@@H]1CCCCNC(=O)C[C@@H](C(N)=O)NC(=O)[C@H](Cc2ccc(C(F)(F)F)cc2)NC(=O)[C@H](Cc2ccccc2)NC1=O [Peptide F-81, Dmt-c[D-Lys-Phe-p-CF3-Phe-Asp]NH2] (H-[Dmt][dK]F[Phe(4-CF3)]D-NH2; lactam 2-5 (inferred))","Colon thickness, width, or length versus TNBS-treated group",Male balb/c mice [2]; 1 mg/kg i.p.,No differences
same,Macroscopic damage score,"Male balb/c mice [2]; 1 mg/kg i.p. day 3 to day 6, TNBS group 4.15 ± 0.54",2.18 ± 0.40
same,Ulcer score,"Male balb/c mice [2]; 1 mg/kg i.p., TNBS group 1.30 ± 0.12",0.92 ± 0.83
same,Inflammation area,"Male balb/c mice [2]; 1 mg/kg i.p., TNBS group 18.49 ± 3.95",12.23 ± 1.56
same,MPO activity,"Male balb/c mice [2]; colon tissue, 1 mg/kg i.p., TNBS group 8.26 ± 0.15",7.88 ± 0.24 units/g of a wet tissue
same,Anti-nociceptive effect with co-administered naltrindole (delta antagonist),"Male CD-1 mice; F-81 10 ng/animal i.c.v., NTL 1 µg/animal",did not modify
same,Anti-nociceptive effect with co-administered norbinaltorphimine (kappa antagonist),"Male CD-1 mice; F-81 10 ng/animal i.c.v., nor-BNI 5 µg/animal i.c.v.",did not modify
same,Anti-nociceptive effect with co-administered β-funaltrexamine (mu antagonist),"Male CD-1 mice; F-81 10 ng/animal i.c.v., β-FNA 1 µg/animal",blocked
same,Anti-nociceptive potency relative to C-36,"Male CD-1 mice; hot-plate test, i.c.v., from the ED50 values",approximately threefold
same,ED50 (jumping response),"Male CD-1 mice; hot-plate test, i.c.v.",17.27 ng
same,Number of spontaneous pain behaviours,Male balb/c mice [3],6.36 ± 1.98
same,kappa-affinity,kappa-opioid receptor,significant kappa-affinity
same,Macroscopic damage score,"Male balb/c mice [4]; 3 days, TNBS group 5.83",4.07
same,Intestinal wall thickness,"Male balb/c mice [4]; TNBS group 1.08 ± 0.12, no difference",0.95 ± 0.07 mm
same,Ulcer score,Male balb/c mice [4]; TNBS group 2.06 ± 0.22,1.43 ± 0.17
same,Colon width,Male balb/c mice [4]; TNBS group 7.91 ± 0.23,6.09 ± 0.53
same,Colon length,"Male balb/c mice [4]; TNBS group 8.01 ± 0.39, no difference",8.23 ± 0.24
same,Inflammation area,Male balb/c mice [4]; TNBS group 24.42 ± 2.92,19.56 ± 2.16
same,MPO activity,"Male balb/c mice [4]; colon tissue, TNBS group 11.82 ± 1.72",3.65 ± 0.87 units/g of a wet tissue
same,BBB permeability Pe ± SD,[1],≤0.58
same,Classification (BBB permeation),[1],Low permeation (Pe < 2.0 – low permeation)
same,Mean (%) Mass balance ± SD,[1],95.75 ± 1.43%
same,Microscopic score,Male balb/c mice [5],significantly improved
same,solubility at 90 min,Kinetic solubility assay; read-out: Solubility Mean,345 µM
same,solubility at 90 min,Kinetic solubility assay; [6],0.27 mg/mL
